Marks after values point to notes of the source that are not given here.

Assay [1] concerns normal human dermal fibroblasts (NHDF). In words: Number of cells, cytometry kit (Experiment 5). Type of assay: cell-based. As to conditions: control = 100%. From the text:
The number of cells was counted with a cytometry kit (or a staining method) and the variation of cell number when added with any one of the test substances, based on the value of control being regarded as 100%.

Assay [2] relates to normal human epidermal keratinocytes. As to the kind of experiment: Differentiation of keratinocytes, microscopic morphology score (Experiment 1-1). Type of assay: cell-based. The settings on record: 3 days culture, mean of triplicate. From the text: To 12-well plates, one milliliter of a cell suspension with a cell density of 2.5×10^4 cells/mL prepared by suspending normal human epidermal keratinocytes in EpiLife, a product name of a medium for keratinocytes containing a growth factor, commercialized by Life Technologies, Inc., 9800 Medical Center Drive Rockville, Md. 20850 USA; followed by culturing the cells until prevailing up to about ½ of the bottom surface of each well. Thereafter, the culture medium in each well was replaced with a medium for keratinocytes free of growth factor and cultured for two days, and then replaced with a fresh medium for keratinocytes, which contained any one of the test substances in Table 1 at respective concentrations as indicated in the table, and then cultured for three days. As a control, a culture system was provided similarly as above except for not adding any of the test substances. Under a microscopic condition, cell morphology was observed and evaluated for the keratinocyte-differentiation-inducing ability based on the following criteria:
Score 1: The number of cells in a flattened form against the total cells is 50% or lower.
Score 2: The number of cells in a flattened form against the total cells is 50% or more.
Score 3: Nearly all of the cells are in an irregular shape and there appears some cells with gloss.
It means that the higher the score the more the cell differentiation was accelerated. Each experiment system was performed in a triplicate manner, followed by calculating a mean value for each system.

For assay [3], the system named is transglutaminase. As to the kind of experiment: Transglutaminase activity, fluorescein cadaverine uptake (Experiments 1-3 and 7). In kind it is cell-based, human. The settings on record: for Transglutaminase activity (%): control = 100%. As to the method: Normal human epidermal keratinocytes were cultured similarly as in Experiment 1-1, except for adding the test substances as listed in Table 3 to respective culture systems. The cultured normal human epidermal keratinocytes were added with 100 μM of fluorescein cadaverine and allowed to stand for four hours. Thereafter, the resulting cells were washed once with phosphate buffered saline and further treated with cold methanol for 10 min for cell fixation. The fixed cells were washed thrice with cold methanol, followed by the addition of phosphate buffered saline. Fluorescein cadaverine taken in the cells via transglutaminase was analyzed with Cell Imaging Station, commercialized by Molecular Probes Life Technology, France, and the analyzed fluorescent intensities were regarded as transglutaminase activities. There was provided a control system similarly as in the above, except for not adding any of the test substances. The transglutaminase activity of each test substance was evaluated as a relative value determined with the following equation using the fluorescent intensity of the control system being regarded as 100%. Equation: Transglutaminase activity (relative value (%))=[(Fluorescent intensity of a sample with any one of test substances)/(Fluorescent intensity of control)]×100
The experiment was repeated three times, and the data was subjected to the Dunnett's multiple comparisons with Control. The symbol “*” means a level of significance of p<0.01.
Except for adding the test substances listed in Tables 8 and 9 at respective concentrations shown in the tables, experiments were respectively conducted in accordance with the methods in Experiments 1-2 and 1-3 disclosed in the specification to examine the effect of the combination use of epigallocatechin gallate, which is used as an antioxidant for cosmetics, and sodium adenosine N1-oxide 5′-phosphate on the action of accelerating the cornified-envelope production and the action of enhancing the transglutaminase activity of sodium adenosine N1-oxide 5′-phosphate. A control system was provided and similarly treated as above except for not adding any test substance and was determined for both the increase rates of cornified-envelope production level and the transglutaminase activity, based on the following equations. Equation: Increase rate of cornified envelope production level (%)={[(Absorbance of a sample with any one of test substances)/(Absorbance of control)]×100}−100 Equation: Increase rate of transglutaminase (%)={[(Absorbance of a sample with any one of test substances)/(Absorbance of control)]×100}−100

For assay [4], the system named is matrix metalloprotease-1. As to the kind of experiment: Matrix metalloprotease-1 production of NHDF after IL-1β, ELISA (Experiments 5 and 9). As to conditions: for Production level of matrix metalloprotease-1 (%): human IL-1β 1 ng/ml, control = 100%. In kind it is cell-based, human. The procedure:
Normal human dermal fibroblasts (NHDF), which had been suspended in a Dulbecco's Modified Eagle Medium supplemented with 10% fetal calf serum to give a concentration of 2.5×10^5 cells/mL, were placed in 96-well microplates by 0.1 mL/well and cultured until reaching a confluent state over the bottom of each well. Thereafter, the medium in each well was replaced with a fresh serum-free culture medium and culture for another 24 hours, added with any one of the test substances in Table 6 at each concentration shown in the table, and cultured for additional 24 hours. Then, the resulting cell cultures were added with human IL-1β to give a final concentration of 1 ng/ml, followed by culturing the cells for another 24 hours. After completion of the culture, matrix metalloprotease-1 in the supernatant in each well was detected with an enzyme-linked immuno sorbent assay (ELISA), commercialized by R & D Systems, Inc., MN, USA, developed coloration with tetramethylbenzidine, and measured for absorption at a wavelength of 450 nm. A control system was provided similarly as above except for not adding any test substance, and determined for the activity of matrix metalloprotease-1 similarly as in the above to be regarded as 100%. The production level of matrix metalloprotease-1 for each test substance was comparatively evaluated based on the following equation. Equation: Production level of matrix metalloprotease-1 (relative value (%))=[(Absorbance of a sample with any one of test substances)/(Absorbance of control)]×100
The experiment was repeated three times, and the data were compared to that of control with the Dunnett's multiple comparisons test. The symbol “*” means a level of significance of p<0.01.
Except for adding the test substances listed in Table 12 at respective concentrations shown in the table, experiments were respectively conducted in accordance with the methods in Experiment 5 disclosed in the specification to examine the effect of the combination use with ascorbic acid 2-glucoside used as a skin whitener in cosmetics on the action of anti-wrinkles by analogues of adenosine N1-oxide 5′-phosphate. A control system was provided and similarly treated as above except for not adding any test substance. The reduction rate of the production level of matrix metalloprotease-1 against that of control based on the following equation. Equation: Reduction rate of the production level of matrix metalloprotease−1(%)=100−[(Absorbance of a sample with any one of test substances)/(Absorbance of control)]×100
(ELISA stands for enzyme-linked immunosorbent assay.)

Where [5] appears, read: 20 μM, listed as sodium adenosine N1-oxide 5′-phosphate.

As for “5′-α-glucosyl adenosine N1-oxide [5′-α-Glucosyladenosine N1-oxide]”, the “Number of cells (%)” value in assay [1] (200 μM) came to 108.1%; in assay [1] (400 μM), 102.1%; in assay [1] (800 μM) it was 102.6%. The Score in assay [2] (200 μM) is on record as 2.0; in assay [2] (400 μM) it was 2.0; in assay [2] (800 μM) it was 3.0. Moreover, in assay [3] (400 μM), the “Transglutaminase activity (%)” value was 404* %. In addition, the “Production level of matrix metalloprotease-1 (%)” value is 85.4* % in assay [4] (200 μM), 83.6* % in assay [4] (400 μM) and 77.0* % in assay [4] (800 μM).
`Nc1ncnc2c1ncn2[C@@H]1O[C@H](COP(=O)(O)O)[C@@H](O)[C@H]1O` [Adenosine 5′-phosphate, reference compound]: the “Number of cells (%)” value stood at 93.7% in assay [1] (200 μM), 89.9% in assay [1] (400 μM) and 96.0% in assay [1] (800 μM). Further, in assay [3] (400 μM), the “Transglutaminase activity (%)” value was found to be 244%. Besides, the results for the “Production level of matrix metalloprotease-1 (%)” value in assay [4] (200 μM), in assay [4] (400 μM) and in assay [4] (800 μM) were 99.5%, 93.3% and 90.3%, respectively.
On to `Nc1c2ncn([C@@H]3O[C@H](CO)[C@@H](O)[C@H]3O)c2nc[n+]1[O-]` [Adenosine N1-oxide, adenosine N1-oxide], for which the “Number of cells (%)” value in assay [1] (5 μM) was 98.5%; in assay [1] (10 μM), 94.6%; in assay [1] (20 μM), 94.4%. In addition, the Score in assay [2] (10 μM) is reported as 2.0; in assay [2] (20 μM) it was 3.0; in assay [2] (40 μM), 3.0. The “Transglutaminase activity (%)” value is listed as 632* % in assay [3] (20 μM) and “about 630%” in assay [3] (20 μM, listed as adenosine N1-oxide). Besides, the “Production level of matrix metalloprotease-1 (%)” value was 86.6% in assay [4] (5 μM), 77.6* % in assay [4] (10 μM) and 31.9* % in assay [4] (20 μM). Also, the inhibition at 2 µM in assay [4] (Homo sapiens, NHDF, 2 μM, single use, reduction against control, read-out: Reduction rate of the production level of matrix metalloprotease-1 activity (%)) came out at 10%. Besides, the inhibition at 5 µM in assay [4] (Homo sapiens, NHDF, 5 μM, single use, reduction against control, read-out: Reduction rate of the production level of matrix metalloprotease-1 activity (%)) came to 13.4%. In addition, the inhibition at 10 µM in assay [4] (Homo sapiens, NHDF, 10 μM, single use, reduction against control, read-out: Reduction rate of the production level of matrix metalloprotease-1 activity (%)) worked out at 22.4%.
Consider `Nc1c2ncn([C@@H]3O[C@H](COP(=O)([O-])O)[C@@H](O)[C@H]3O)c2nc[n+]1[O-].[Na+]` [Sodium adenosine N1-oxide 5′-phosphate, sodium adenosine N1-oxide 5′-phosphate], for which the figures for the “Number of cells (%)” value in assay [1] (5 μM), in assay [1] (10 μM) and in assay [1] (20 μM) were 99.9%, 99.5% and 92.2%, respectively. Besides, the Score in assay [2] (10 μM) is 2.0; in assay [2] (20 μM) it was 3.0; in assay [2] (40 μM), 3.0. For the same molecule, the “Increase rate of transglutaminase activity (%)” value in assay [3] (15 μM, single use, increase over control) stood at 0.0%. Besides, the “Transglutaminase activity (%)” value in assay [3] (20 μM) is recorded as 569* %; in assay [3] (setting [5]) it was “about 570%”. The “Reduction rate of the production level of matrix metalloprotease-1 activity (%)” value in assay [4] (2 μM, single use, reduction against control) was determined as 2.9%; in assay [4] (5 μM, single use, reduction against control), 4.0%; in assay [4] (10 μM, single use, reduction against control), 16.9%. Also, the “Production level of matrix metalloprotease-1 (%)” value in assay [4] (5 μM) was 96.0%; in assay [4] (10 μM), 83.1* %; in assay [4] (10 μM, listed as sodium adenosine N1-oxide 5′-phosphate), “about 80%”; in assay [4] (20 μM), 31.8* %; in assay [4] (setting [5]), “about 30%”.
In the case of “3′-α-Glucosyladenosine [reference compound]”, the figures for the “Number of cells (%)” value in assay [1] (200 μM), in assay [1] (400 μM) and in assay [1] (800 μM) were 98.9%, 101.1% and 107.2%, respectively. Moreover, the Score in assay [2] (200 μM), in assay [2] (400 μM) and in assay [2] (800 μM) was 0.0 each time. In assay [3] (400 μM), the “Transglutaminase activity (%)” value turned out to be 269%. For the same molecule, the “Production level of matrix metalloprotease-1 (%)” value in assay [4] (200 μM) came out at 86.6%; in assay [4] (400 μM), 87.1%; in assay [4] (800 μM) it was 98.7%.

Source of the values: patent US10071042B2, “External dermatological agent for anti-ageing” (Hayashibara Co., Ltd., priority 2014, dated 2018).
